Results taken from patent publication US20230295119A1, “SUBSTITUTED PYRIDINES FOR THE TREATMENT OF INFLAMMATORY DISEASES” (GOSSAMER BIO SERVICES, INC., priority 2020, published 2023).
pIC50: −log10 of the molar value.

Experiments:
human JAK2 = human JAK2 (Homo sapiens (Human), UniProt O60674); experiment: JAK2 TR-FRET kinase assay; assay type: biochemical; details: JAK2 0.025 nM
human JAK3 = human JAK3 (Homo sapiens (Human), UniProt P52333); experiment: JAK3 TR-FRET kinase assay; assay type: biochemical; details: JAK3 0.0125 nM
Sequence of human JAK3 (P52333 whole entry, the tested form may be a part): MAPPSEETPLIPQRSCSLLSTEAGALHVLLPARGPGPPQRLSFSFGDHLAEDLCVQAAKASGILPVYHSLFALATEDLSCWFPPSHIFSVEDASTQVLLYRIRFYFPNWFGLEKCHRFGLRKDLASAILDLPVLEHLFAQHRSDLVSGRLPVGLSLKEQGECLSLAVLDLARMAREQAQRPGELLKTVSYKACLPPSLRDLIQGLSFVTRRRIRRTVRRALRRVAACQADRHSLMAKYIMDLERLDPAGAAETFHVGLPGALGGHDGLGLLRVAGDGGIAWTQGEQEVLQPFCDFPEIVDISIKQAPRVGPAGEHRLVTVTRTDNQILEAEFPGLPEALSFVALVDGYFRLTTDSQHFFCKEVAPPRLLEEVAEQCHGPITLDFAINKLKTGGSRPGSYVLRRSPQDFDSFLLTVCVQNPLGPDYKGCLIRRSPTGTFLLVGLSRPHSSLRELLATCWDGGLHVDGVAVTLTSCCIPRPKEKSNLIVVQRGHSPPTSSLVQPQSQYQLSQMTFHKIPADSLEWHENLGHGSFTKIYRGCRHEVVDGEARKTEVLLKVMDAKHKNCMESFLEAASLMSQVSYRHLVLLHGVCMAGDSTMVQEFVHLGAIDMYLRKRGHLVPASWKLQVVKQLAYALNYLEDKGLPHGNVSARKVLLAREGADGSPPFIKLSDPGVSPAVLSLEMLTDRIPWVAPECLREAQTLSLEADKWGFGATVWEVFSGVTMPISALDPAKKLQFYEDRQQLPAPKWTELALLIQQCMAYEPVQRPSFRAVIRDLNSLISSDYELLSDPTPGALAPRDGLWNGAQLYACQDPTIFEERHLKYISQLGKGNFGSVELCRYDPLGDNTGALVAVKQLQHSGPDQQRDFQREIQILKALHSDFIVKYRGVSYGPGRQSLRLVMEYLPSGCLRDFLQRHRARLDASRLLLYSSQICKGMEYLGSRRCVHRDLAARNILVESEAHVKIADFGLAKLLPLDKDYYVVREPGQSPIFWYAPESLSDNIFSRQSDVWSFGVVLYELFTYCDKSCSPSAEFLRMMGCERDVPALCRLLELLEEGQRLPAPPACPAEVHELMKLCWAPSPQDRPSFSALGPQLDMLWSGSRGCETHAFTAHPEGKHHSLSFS

TYK2 JH2 domain = TYK2 JH2 domain (Homo sapiens (Human), UniProt P29597); experiment: TYK2 JH2 NanoBRET assay; assay type: binding; details: Table 20, read-out: TYK2 IC50
Sequence of TYK2 JH2 domain (P29597 589-875): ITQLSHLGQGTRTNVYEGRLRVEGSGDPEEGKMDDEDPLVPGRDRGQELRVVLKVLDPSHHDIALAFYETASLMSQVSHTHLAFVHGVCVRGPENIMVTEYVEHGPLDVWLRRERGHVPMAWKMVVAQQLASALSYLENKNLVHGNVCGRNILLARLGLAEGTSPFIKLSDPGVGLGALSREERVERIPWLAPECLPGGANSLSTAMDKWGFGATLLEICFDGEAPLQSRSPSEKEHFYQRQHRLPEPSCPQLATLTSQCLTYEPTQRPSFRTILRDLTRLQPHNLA
Summary of the method: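 HEK293T cells transiently expressing NanoLuc-TYK2 JH2 fusion, incubated 2 h with compound and NanoBRET K10 tracer (0.5 µM final). Target engagement read as acceptor/donor BRET ratio after Nano-Glo substrate plus extracellular NanoLuc inhibitor.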

human JAK1 = human JAK1 (Homo sapiens (Human), UniProt P23458); experiment: JAK1 TR-FRET kinase assay; assay type: biochemical; details: TR-FRET, JAK1 2.5 nM
Sequence of human JAK1 (P23458 whole entry): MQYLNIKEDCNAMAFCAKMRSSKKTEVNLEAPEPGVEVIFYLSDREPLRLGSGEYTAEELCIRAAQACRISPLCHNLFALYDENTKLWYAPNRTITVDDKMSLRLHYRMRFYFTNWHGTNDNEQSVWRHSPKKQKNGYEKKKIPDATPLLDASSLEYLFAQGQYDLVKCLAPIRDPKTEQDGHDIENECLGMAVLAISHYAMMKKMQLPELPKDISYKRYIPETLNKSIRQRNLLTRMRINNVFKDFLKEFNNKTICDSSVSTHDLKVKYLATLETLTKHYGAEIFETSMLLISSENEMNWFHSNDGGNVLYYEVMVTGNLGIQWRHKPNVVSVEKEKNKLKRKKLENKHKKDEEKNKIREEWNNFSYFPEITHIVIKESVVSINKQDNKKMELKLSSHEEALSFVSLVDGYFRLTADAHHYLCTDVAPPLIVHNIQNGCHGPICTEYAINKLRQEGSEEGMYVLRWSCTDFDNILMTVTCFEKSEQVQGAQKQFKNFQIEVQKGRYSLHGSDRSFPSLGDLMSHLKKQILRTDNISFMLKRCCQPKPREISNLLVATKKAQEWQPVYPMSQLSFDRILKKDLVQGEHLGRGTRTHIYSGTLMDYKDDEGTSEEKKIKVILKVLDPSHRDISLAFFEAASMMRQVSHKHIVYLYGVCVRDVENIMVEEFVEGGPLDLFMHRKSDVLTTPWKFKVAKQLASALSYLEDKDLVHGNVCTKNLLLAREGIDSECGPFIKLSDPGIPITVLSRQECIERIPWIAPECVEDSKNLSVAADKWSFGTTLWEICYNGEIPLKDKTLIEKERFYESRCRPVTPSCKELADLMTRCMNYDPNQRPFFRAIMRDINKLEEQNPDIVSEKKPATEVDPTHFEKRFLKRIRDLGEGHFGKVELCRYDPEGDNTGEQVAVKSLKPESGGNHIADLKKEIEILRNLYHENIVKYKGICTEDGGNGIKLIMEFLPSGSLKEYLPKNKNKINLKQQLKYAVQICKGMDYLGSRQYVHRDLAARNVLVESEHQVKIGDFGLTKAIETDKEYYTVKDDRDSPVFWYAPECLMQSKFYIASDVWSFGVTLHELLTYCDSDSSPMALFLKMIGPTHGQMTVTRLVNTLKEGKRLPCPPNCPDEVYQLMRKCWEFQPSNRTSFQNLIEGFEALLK

Sequence of human JAK2 (O60674 whole entry): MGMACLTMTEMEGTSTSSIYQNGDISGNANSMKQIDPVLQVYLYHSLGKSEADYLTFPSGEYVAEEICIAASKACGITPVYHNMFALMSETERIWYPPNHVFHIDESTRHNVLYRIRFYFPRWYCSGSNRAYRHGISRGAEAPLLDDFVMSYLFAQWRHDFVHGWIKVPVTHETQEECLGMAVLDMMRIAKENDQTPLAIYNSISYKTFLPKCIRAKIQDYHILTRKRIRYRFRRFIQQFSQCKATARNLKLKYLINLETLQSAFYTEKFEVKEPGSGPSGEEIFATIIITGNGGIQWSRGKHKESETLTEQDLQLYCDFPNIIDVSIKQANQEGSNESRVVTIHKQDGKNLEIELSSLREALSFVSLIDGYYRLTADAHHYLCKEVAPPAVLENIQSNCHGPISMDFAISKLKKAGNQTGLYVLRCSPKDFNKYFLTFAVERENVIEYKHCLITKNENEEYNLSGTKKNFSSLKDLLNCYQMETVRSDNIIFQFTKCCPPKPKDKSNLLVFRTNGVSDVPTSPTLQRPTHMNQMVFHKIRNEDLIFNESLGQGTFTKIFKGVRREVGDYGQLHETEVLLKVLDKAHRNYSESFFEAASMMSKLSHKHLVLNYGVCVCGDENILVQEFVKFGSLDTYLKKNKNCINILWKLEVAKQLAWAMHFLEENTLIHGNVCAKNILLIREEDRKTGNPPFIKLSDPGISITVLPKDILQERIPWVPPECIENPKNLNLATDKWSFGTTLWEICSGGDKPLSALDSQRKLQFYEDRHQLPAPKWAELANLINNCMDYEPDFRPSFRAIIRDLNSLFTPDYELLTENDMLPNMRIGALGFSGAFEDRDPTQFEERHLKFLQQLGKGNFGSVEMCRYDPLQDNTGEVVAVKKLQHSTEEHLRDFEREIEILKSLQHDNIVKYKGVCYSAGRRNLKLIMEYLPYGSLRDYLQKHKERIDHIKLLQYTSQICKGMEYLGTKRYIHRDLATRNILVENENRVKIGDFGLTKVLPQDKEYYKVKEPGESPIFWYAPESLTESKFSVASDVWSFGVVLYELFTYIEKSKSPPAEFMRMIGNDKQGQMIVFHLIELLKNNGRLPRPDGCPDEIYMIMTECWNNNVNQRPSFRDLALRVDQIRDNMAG

SMILES | pIC50 (human JAK2) | pIC50 (human JAK3) | pIC50 (TYK2 JH2 domain) | pIC50 (human JAK1)
CCC(=O)c1cnc(Nc2ccc(S(C)(=O)=O)cn2)cc1Nc1ccc(CO)cc1OC [Compound 13X] | 6.30 to 7.30 | 6.30 to 7.30 | 6.30 to 7.30 | ≤ 6.30
CCC(=O)c1cnc(Nc2ncc(CNC)cc2F)cc1Nc1cccc(-c2ncn(C)n2)c1OC [Compound 9EEEE] | ≤ 6.30 | ≤ 6.30 | 7.30 to 8.30 | ≤ 6.30
CCC(=O)c1cnc(Nc2ccn(-c3ccccc3)c(=O)n2)cc1Nc1nccc(-c2ncn(C)n2)c1OC [Compound 15S] | ≤ 6.30 | ≤ 6.30 | 7.30 to 8.30 | ≤ 6.30
CCC(=O)c1cnc(Nc2cnc(O[C@@H]3CCNC3)cn2)cc1Nc1cccc(-c2ncn(C)n2)c1OC [Compound 18SS] | ≤ 6.30 | ≤ 6.30 | 7.30 to 8.30 | ≤ 6.30
CCC(=O)c1cnc(Nc2ccc(CN3CC4(COC4)C3)cn2)cc1Nc1cccc(-c2ncn(C)n2)c1OC [Compound 9YY] | ≤ 6.30 | 6.30 to 7.30 | > 8.30 | ≤ 6.30
CCC(=O)c1cnc(Nc2ccc(CCN3CCCC3)cn2)cc1Nc1cccc(-c2ncn(C)n2)c1OC [Compound 11C] | ≤ 6.30 | ≤ 6.30 | > 8.30 | ≤ 6.30
CCC(=O)c1cnc(NC(=O)[C@@H]2C[C@H]2C(N)=O)cc1Nc1cccc(-c2ncn(C)n2)c1OC [Compound 22E] | ≤ 6.30 | ≤ 6.30 | ≤ 6.30 | ≤ 6.30
CCC(=O)c1cnc(Nc2ccc(CN3CCOCC3)cn2)cc1Nc1cccc(-c2ncn(C)n2)c1OC [Compound 9SS] | ≤ 6.30 | ≤ 6.30 | > 8.30 | ≤ 6.30
CCC(=O)c1cnc(NC(=O)C2CC2)cc1Nc1cc(CO)cc(-c2ncn(C)n2)c1OC [Compound 25D] | ≤ 6.30 | ≤ 6.30 | 6.30 to 7.30 | ≤ 6.30
CCC(=O)c1cnc(Nc2ccc(C(C)NC)cn2)cc1Nc1cccc(-c2ncn(C)n2)c1OC (centres unmarked) [Compound 9H] | ≤ 6.30 | ≤ 6.30 | > 8.30 | ≤ 6.30
CCC(=O)c1cnc(Nc2ccc(CN3C4COCC3C4)cn2)cc1Nc1cccc(-c2ncn(C)n2)c1OC [Compound 9XX] | 6.30 to 7.30 | 6.30 to 7.30 | > 8.30 | ≤ 6.30
CCC(=O)c1cnc(Nc2ccn(CC3(CO)COC3)n2)cc1Nc1cccc(-c2ncn(C)n2)c1OC [Compound 21U] | 6.30 to 7.30 | 6.30 to 7.30 | 6.30 to 7.30 | ≤ 6.30
CCO[C@H]1C[C@@H](n2nc(Nc3cc(Nc4cccc(-c5ncn(C)n5)c4OC)c(C(=O)CC)cn3)cc2C)C1 [Compound 21FF] | ≤ 6.30 | ≤ 6.30 | > 8.30 | ≤ 6.30
CCC(=O)c1cnc(Nc2cnc(O[C@H]3CN[C@@H](C(F)F)C3)cn2)cc1Nc1cccc(-c2ncn(C)n2)c1OC [Compound 18000] | ≤ 6.30 | ≤ 6.30 | 7.30 to 8.30 | ≤ 6.30
CCC(=O)c1cnc(Nc2ccc(CN3CC[C@@H](F)C3)cn2)cc1Nc1cccc(-c2ncn(C)n2)c1OC [Compound 9JJ] | ≤ 6.30 | ≤ 6.30 | > 8.30 | ≤ 6.30
CCC(=O)c1cnc(Nc2ccn(CC3(C)COC3)n2)cc1Nc1cccc(-c2ncn(C)n2)c1OC [Compound 21Q] | ≤ 6.30 | 6.30 to 7.30 | 6.30 to 7.30 | ≤ 6.30
CCC(=O)c1cnc(Nc2ccc(CN(C)C)cn2)cc1Nc1cccc(-c2ncc(F)cn2)c1OC [Compound 9D] | ≤ 6.30 | ≤ 6.30 | 7.30 to 8.30 | ≤ 6.30
CCC(=O)c1cnc(NC(=O)[C@@H]2C[C@H]2NC(C)=O)cc1Nc1cccc(-c2ncn(C)n2)c1OC [Compound 22I] | ≤ 6.30 | ≤ 6.30 | ≤ 6.30 | ≤ 6.30
CCC(=O)c1cnc(NC(=O)CC2CC2)cc1Nc1cccc(-c2ncn(C)n2)c1OC [Compound 23B] | ≤ 6.30 | ≤ 6.30 | 7.30 to 8.30 | ≤ 6.30
CCC(=O)c1cnc(Nc2ccc(OC[C@H](O)CO)cn2)cc1Nc1cccc(-c2ncn(C)n2)c1OC [Compound 18G] | ≤ 6.30 | ≤ 6.30 | 7.30 to 8.30 | ≤ 6.30
CCC(=O)c1cnc(NC(=O)[C@@H]2C[C@H]2C(=O)O)cc1Nc1cccc(-c2ncn(C)n2)c1OC [Compound 22C] | ≤ 6.30 | ≤ 6.30 | ≤ 6.30 | ≤ 6.30
CCC(=O)c1cnc(Nc2cn([C@H]3C[C@@H](O)C3)cn2)cc1Nc1cccc(-c2ncn(C)n2)c1OC [Compound 21P] | ≤ 6.30 | ≤ 6.30 | 7.30 to 8.30 | ≤ 6.30
CCC(=O)c1cnc(Nc2ccc(CS(C)(=O)=O)nn2)cc1Nc1cccc(-c2ncn(C)n2)c1OC [Compound 13T] | ≤ 6.30 | ≤ 6.30 | 7.30 to 8.30 | ≤ 6.30
CCC(=O)c1cnc(Nc2ccn([C@H]3C[C@@H](C#N)C3)n2)cc1Nc1cccc(-c2ncn(C)n2)c1OC [Compound 21N] | ≤ 6.30 | ≤ 6.30 | 7.30 to 8.30 | ≤ 6.30
CCC(=O)c1cnc(Nc2ccc(CN3CC(C#N)C3)cn2)cc1Nc1cccc(-c2ncn(C)n2)c1OC [Compound 9FF] | ≤ 6.30 | 6.30 to 7.30 | 7.30 to 8.30 | ≤ 6.30
CCC(=O)c1cnc(Nc2ccc(CN3C[C@@H](C)O[C@@H](C)C3)cn2)cc1Nc1cccc(-c2ncn(C)n2)c1OC [Compound 9UU] | ≤ 6.30 | ≤ 6.30 | > 8.30 | ≤ 6.30
